Measured values published in ChEMBL document CHEMBL3576862, “Peptidic inhibitors for in vitro pentamer formation of human papillomavirus capsid protein l1” (ACS Med Chem Lett, 2015).
Calls of active or inactive are those of the source. The calls are words filed in the database; no cut-off is given here.

Legend:
[1] = biological target: T1, Major capsid protein L1 (Human papillomavirus 16, UniProt P03101); test: (§1) Inhibition of pentamer formation of GST-tagged HPV16 major capsid protein L1 assessed as increased L1-m peak formation incubated with compound after overnight PPase-mediated digestion by size-exclusion chromatography
T1 sequence (P03101 whole entry): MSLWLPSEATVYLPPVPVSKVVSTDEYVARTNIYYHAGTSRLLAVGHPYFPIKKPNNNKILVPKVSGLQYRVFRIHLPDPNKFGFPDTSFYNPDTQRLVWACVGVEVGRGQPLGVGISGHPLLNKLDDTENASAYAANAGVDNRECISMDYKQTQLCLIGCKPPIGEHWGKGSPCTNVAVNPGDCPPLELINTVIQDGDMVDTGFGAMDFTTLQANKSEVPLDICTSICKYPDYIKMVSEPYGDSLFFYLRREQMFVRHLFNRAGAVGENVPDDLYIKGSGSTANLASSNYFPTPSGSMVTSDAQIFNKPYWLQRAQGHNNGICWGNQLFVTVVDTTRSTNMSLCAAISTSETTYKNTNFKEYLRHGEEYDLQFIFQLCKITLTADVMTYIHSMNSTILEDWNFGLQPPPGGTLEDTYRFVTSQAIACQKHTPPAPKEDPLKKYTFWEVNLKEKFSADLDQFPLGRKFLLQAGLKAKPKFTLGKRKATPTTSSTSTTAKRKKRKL

[2] = biological target: T2, Major capsid protein L1 (Human papillomavirus 16) (UniProt P03101); test: as §1
T2 sequence (whole entry): T1 sequence (P03101 whole entry)

[3] = biological target: T2, Major capsid protein L1 (Human papillomavirus 16); test: Inhibition of GST-tagged HPV16 major capsid protein L1 pentamer assembly assessed as reduction in pentamer assembly in presence of PPase by static light scattering method
[4] = biological target: T2, Major capsid protein L1 (Human papillomavirus 16); test: Inhibition of GST-tagged HPV16 major capsid protein L1 pentamer assembly assessed as reduction in pentamer assembly at 1:50 ratio of pentamer to compound in presence of PPase by static light scattering method
[5] = biological target: T2, Major capsid protein L1 (Human papillomavirus 16); test: Inhibition of GST-tagged HPV16 major capsid protein L1 pentamer assembly assessed as size distribution of hydrodynamic diameter of pentamer assembly in presence of PPase by dynamic light scattering method (reference value: 14.9 nanometer)
[6] = biological target: T1, Major capsid protein L1; test: Binding affinity to GST-tagged HPV16 major capsid protein L1 using CY3-labeled compound by FRET assay
[7] = biological target: T2, Major capsid protein L1 (Human papillomavirus 16); test: Binding affinity to GST-tagged HPV16 major capsid protein L1 assessed as increase in thermal stability by measuring melting temperature at 1:100 ratio of pentamer to compound by UV cloud point measurement assay
[8] = biological target: T2, Major capsid protein L1 (Human papillomavirus 16); test: Inhibition of pentamer formation of GST-tagged HPV16 major capsid protein L1 assessed as increased L1-m peak formation incubated with compound after overnight PPase-mediated digestion and measured after dialysis by dynamic light scattering method
[9] = biological target: T2, Major capsid protein L1 (Human papillomavirus 16); test: Inhibition of GST-tagged HPV16 major capsid protein L1 pentamer assembly assessed as size distribution of hydrodynamic diameter of pentamer assembly in presence of PPase measured after dialysis by dynamic light scattering method and transmission electron microscopy
[10] = biological target: T3, Major capsid protein L1 (human papillomavirus 58) (UniProt P26535); test: Inhibition of GST-tagged HPV58 major capsid protein L1 pentamer formation at 1:100 ratio of pentamer to compound in presence of PPase by FPLC method
T3 sequence (whole entry): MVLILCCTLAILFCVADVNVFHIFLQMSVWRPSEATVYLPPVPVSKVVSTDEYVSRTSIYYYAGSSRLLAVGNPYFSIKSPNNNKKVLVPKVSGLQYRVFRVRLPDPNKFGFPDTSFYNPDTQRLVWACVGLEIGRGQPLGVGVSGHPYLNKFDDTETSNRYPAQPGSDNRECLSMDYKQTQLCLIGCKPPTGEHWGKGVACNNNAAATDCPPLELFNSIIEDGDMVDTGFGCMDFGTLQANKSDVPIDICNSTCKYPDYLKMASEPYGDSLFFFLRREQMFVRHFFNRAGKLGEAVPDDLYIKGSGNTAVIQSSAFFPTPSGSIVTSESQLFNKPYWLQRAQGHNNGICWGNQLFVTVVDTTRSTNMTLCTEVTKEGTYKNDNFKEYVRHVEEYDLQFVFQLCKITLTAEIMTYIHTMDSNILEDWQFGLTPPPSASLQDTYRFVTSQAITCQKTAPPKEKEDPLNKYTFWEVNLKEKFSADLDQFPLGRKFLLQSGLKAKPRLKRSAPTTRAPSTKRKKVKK

[11] = biological target: T4, Major capsid protein L1 (human papillomavirus 18) (UniProt P06794); test: Inhibition of GST-tagged HPV18 major capsid protein L1 pentamer formation at 1:100 ratio of pentamer to compound in presence of PPase by FPLC method
T4 sequence (whole entry): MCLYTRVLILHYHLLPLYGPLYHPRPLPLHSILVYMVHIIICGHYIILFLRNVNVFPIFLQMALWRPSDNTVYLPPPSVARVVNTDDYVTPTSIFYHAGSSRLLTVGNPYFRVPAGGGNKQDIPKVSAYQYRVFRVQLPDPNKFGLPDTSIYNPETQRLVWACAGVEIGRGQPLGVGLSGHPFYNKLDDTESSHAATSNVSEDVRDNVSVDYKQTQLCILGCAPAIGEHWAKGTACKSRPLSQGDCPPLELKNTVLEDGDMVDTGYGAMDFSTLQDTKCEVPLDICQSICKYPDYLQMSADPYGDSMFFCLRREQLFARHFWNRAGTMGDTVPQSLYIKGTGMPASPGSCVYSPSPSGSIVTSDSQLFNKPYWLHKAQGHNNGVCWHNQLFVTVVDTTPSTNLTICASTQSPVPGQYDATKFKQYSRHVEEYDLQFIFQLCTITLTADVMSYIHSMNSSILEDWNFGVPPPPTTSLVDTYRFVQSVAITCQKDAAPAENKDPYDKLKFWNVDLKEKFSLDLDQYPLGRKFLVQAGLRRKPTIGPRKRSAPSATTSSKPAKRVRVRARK

[12] = biological target: T2, Major capsid protein L1 (Human papillomavirus 16); test: Inhibition of GST-tagged HPV16 major capsid protein L1 pentamer formation at 1:100 ratio of pentamer to compound in presence of PPase by FPLC method
[13] = biological target: T2, Major capsid protein L1 (Human papillomavirus 16); test: Binding affinity to GST-tagged HPV16 major capsid protein L1 pentamer formation at 1:100 ratio of pentamer to compound by CD spectroscopy method
[14] = biological target: T2, Major capsid protein L1 (Human papillomavirus 16); test: Binding affinity to GST-tagged HPV16 major capsid protein L1 by FRET assay

Q: Which IC50 [1] does the source give for `CC(C)C[C@H](NC(=O)CNC(=O)[C@H](C)NC(=O)[C@H](CCC(N)=O)NC(=O)[C@H](CC(C)C)NC(=O)[C@H](CC(C)C)NC(=O)[C@H](Cc1ccccc1)NC(=O)[C@H](CCCCN)NC(=O)[C@H](CCCNC(=N)N)NC(=O)CNC(=O)[C@H](CC(C)C)NC(=O)[C@@H]1CCCN1)C(=O)N[C@@H](CCCCN)C(=O)N[C@@H](C)C(=O)N[C@@H](CCCCN)C(=O)O` here?
A: Its IC50 is 48.1 nM.

Q: With `CC(C)C[C@H](NC(=O)[C@H](CC(C)C)NC(=O)[C@H](Cc1ccccc1)NC(=O)[C@H](CCCCN)NC(=O)[C@H](CCCNC(=N)N)NC(=O)CNC(=O)[C@H](CC(C)C)NC(=O)[C@@H]1CCCN1C(=O)[C@H](Cc1ccccc1)NC(=O)[C@H](CCC(N)=O)NC(=O)[C@H](CC(=O)O)NC(=O)[C@H](CC(C)C)NC(=O)[C@@H](N)CC(=O)O)C(=O)N[C@@H](CCC(N)=O)C(=O)O` as the molecule, how does the inhibition [2] read?
A: Its inhibition is “Dose-dependent effect”.

Q: What about the IC50 [1] of the same molecule?
A: The IC50 was 19.4 nM.

Q: What about the inhibition [3] of the same molecule?
A: Its inhibition is “Dose-dependent effect”.

Q: What about the inhibition [4] of the same molecule?
A: The inhibition was “Active”.

Q: What about the Activity [5] of the same molecule?
A: Its Activity is 9.4 nm.

Q: What about the Kd [6] of the same molecule?
A: Its Kd is 600 nM.

Q: What about the Activity [7] of the same molecule?
A: The Activity was “Active”.

Q: And the Activity [8]?
A: Its Activity is “inactive”.

Q: What about the Activity [9] of the same molecule?
A: The Activity was “inactive”.

Q: What about the inhibition [10] of the same molecule?
A: Its inhibition is “Active”.

Q: What about the inhibition [11] of the same molecule?
A: Its inhibition is “inactive”.

Q: `CC(C)C[C@H](NC(=O)[C@H](CC(C)C)NC(=O)[C@H](Cc1ccccc1)NC(=O)[C@H](CCCCN)NC(=O)[C@H](CCCNC(=N)N)NC(=O)CNC(=O)[C@H](CC(C)C)NC(=O)[C@@H]1CCCN1C(=O)[C@H](Cc1ccccc1)NC(=O)[C@H](CCC(N)=O)NC(=O)[C@H](CC(=O)O)NC(=O)[C@H](CO)NC(=O)[C@@H](N)CC(=O)O)C(=O)N[C@@H](CCC(N)=O)C(=O)O` was tested. Which inhibition [12] did it give?
A: The inhibition was “inactive”.

Q: With H-DLDQFPAGRKFLLQ-OH as the molecule, how does the inhibition [12] read?
A: The inhibition was “inactive”.

Q: What about the Activity [13] of the same molecule?
A: Its Activity is “inactive”.

Q: Which results are given for H-DLDQFPLGAKFLLQ-OH?
A: inhibition [12]: inactive; Activity [13]: inactive

Q: For H-DLDQFPLGR-OH, which inhibition [12] is on record?
A: Its inhibition is “inactive”.

Q: Which results are given for H-DLDQFPSSSKFLLQ-OH?
A: inhibition [12]: inactive; Activity [13]: inactive

Q: Which inhibition [12] does the source give for H-DLDQSPLGRKFLLQ-OH here?
A: The inhibition was “inactive”.

Q: Which inhibition [12] does the source give for H-PLGRKFL-OH here?
A: The inhibition was “inactive”.

Q: For H-QFPLGRKFL-OH, which inhibition [12] is on record?
A: Its inhibition is “Active”.

Q: Which inhibition [2] does the source give for H-SGFLRQLGFDKLQD-OH here?
A: The inhibition was “inactive”.

Q: What about the Activity [14] of the same molecule?
A: The Activity was “inactive”.

Q: And the Activity [7]?
A: The Activity was “inactive”.
